The results in this text go back to patent publication US9326970B2, “Choline esters” (Encore Health, LLC, priority 2009, dated 2016).

One data set deals with mouse lenses. Briefly: Increase in elasticity: lens organ culture, change in lens diameter under coverslip (ΔD). From the text:
FIG. 4 depicts a scatter plot of the change in ΔD (micrometers) in the absence (control) and presence of lipoic acid in lens organ culture experiments. […] Statistical values are highly significant at p<0.0001 by unpaired t-test and by Kruskal Wallis test, which compared medians of each data set. The relative change in Young's modulus (E) can be calculated as the cubic value derived from the ΔD of the control divided by the ΔD of the experimental or E fractional change=(ΔD con/ΔDexp)^3.
Increase in Elasticity: Pairs of mouse lenses were incubated in medium 200 supplemented with an antibiotic, an antimycotic, the presence or absence of lipoic acid (concentrations ranging from 0.5 μM to 500 μM) for 8-15 hours. Each lens was removed from medium, weighed, and photographed on a micrometer scale. A coverslip of known weight (0.17899±0.00200 g) was placed on the lens, and the lens was photographed again on the micrometer scale. The diameter of each lens with and without the coverslip was determined from the photographs. The change in lens diameter produced by the force (coverslip) was computed ΔD=(Dwithcoverslip−Dwithoutcoverslip).

Data set [1] relates to protein disulfides in the mouse lenses. Briefly: Decrease in disulfide bonds: protein SH/SS groups in lens homogenates. How it is done:
FIG. 5 depicts a scattergram of the percent of the total protein SH groups in disulfide bonds. Free SH groups were alkylated with 4-acetamido-4′-maleimidylstilbene-2,2′-sulfonic acid (c, 1 μM, 5 μM, 9.6 μM, 50 μM, 96 μM) or 7-diethylamino-3-(4′maleimidylphenyl)-4-methyl coumarin (500 μM, and 500 μM c). Following removal of the first alkylating agent, the S—S bonds were reduced and alkylated with fluorescein-5-maleimide. Absorption spectra were used to calculated total protein (A280 nm), free protein SH (A322 or A384), and protein SS (A490) using the appropriate extinction coefficients. The symbol ‡ indicates statistically significant difference of mean with mean of control (c, p≦0.05).
Mouse lenses were homogenized in a denaturing buffer containing a fluorescent alkylating agent to modify the free SH groups. After removing the alkylating agent homogenates were reduced and alkylated with a different fluorescent alkylating agent. Absorption spectra of the modified proteins were used to calculate free protein SH and protein SS groups.

Data set [2] has as its system human umbilical vein endothelial cells (HUVEC, first passage). Nature of the data set: In vitro toxicology: cell viability (MultiTox-Fluor or Live/Dead assay). As to conditions: doses ranging from 0.1 μM to 100 μM. The data set is classed as cell-based. The method, then:
Cell viability was determined using human umbilical vein endothelial cells (HUVEC, first passage). Cells were treated with the active agent in doses ranging from 0.1 μM to 100 μM. The number of live and dead cells was determined using the MultiTox-Fluor assay (Promega) or Live/Dead® assay (Invitrogen). Logistic plots were used to determine the compound's LD50 value. Lipoic acid was not cytotoxic the concentration range.

Each structure is given as a SMILES string.

Regarding `O=C(O)CCCCC1CCSS1` (centres unmarked) [Lipoic acid, 5-(1,2-dithiolan-3-yl)pentanoic acid], the “change in ΔD (micrometers) compared to controls, FIG. 4” value in the data set on mouse lenses (lens organ culture, data sets marked ‡, p<0.0001 by unpaired t-test and Kruskal Wallis test) is “significantly larger changes in ΔD”. Besides, in the data set on mouse lenses (lipoic acid at concentrations ≧9.6 μM, 8-15 hours incubation, vs control, p<0.0001), the “change in ΔD (lens diameter with coverslip minus without)” value was “statistically significant increase in ΔD”. The “percent of the total protein SH groups in disulfide bonds, FIG. 5” value in data set [1] (500 μM lipoic acid vs 500 μM control, p=0.027) is reported as “significantly different”. The protein disulfides entry in data set [1] (lipoic acid at concentrations ≧9.6 μM, mouse lenses with a significant increase in ΔD) is reported as “statistically significant decrease in protein disulfides”. Also, the “cytotoxicity (cell viability, LD50 from logistic plots)” value in data set [2] was “not cytotoxic”.
